From patent US9357776B2, “Method for producing pest control agent” (priority 2011, dated 2016)

Key:
[1] = test system: Laodelphax striatellus; test: Test for control of Laodelphax striatellus, sensitive and resistant strains (rice soil drench); type: in vivo; conditions: three days after release
Procedure: (§1) Rice plant seedlings grown in a pot were treated by soil drench with a liquid agent prepared to be 10% acetone-water, and to contain a predetermined concentration of a compound of the present invention. Three days after the treatment, 10 sensitive or resistant strain of second instar larvae of Laodelphax striatellus were released on each of the rice plant seedlings. After that the rice plant seedlings were allowed to stand in a thermostatic chamber at 25° C. (16-hour light period and 8-hour dark period). […] The test was duplicated. Mortality rate (%)=[Number of dead insects/(Number of survived insects+Number of dead insects)]×100
Note that the pests tested were insects bred for generations in a room for a long period (sensitive strain), and insects collected in Kumamoto Prefecture in 2006, and bred for generations in a room (field-collected strain: resistant strain).

[2] = test system: crude enzyme extraction liquid of housefly (Musca domestica); test: In vitro metabolism test using crude enzyme extraction liquid of housefly; type: in vitro ADME; conditions: 25° C., 40 hours, LC/MS
Procedure: As described in Pest Management Science (2003), 59(3), 347-352, and Journal of Pesticide Science (2004), 29(2), 110-116, imidacloprid is known to be inactivated by oxidative metabolism, which is thought to be one of the mechanisms for the acquisition of the resistance. To investigate effects on insects acquiring such resistance, the following experiment was carried out.
To adult housefly (Musca domestica) (0.645 g), 10 ml of a potassium phosphate buffer (pH 7.4, containing 1 mM EDTA) was added, and the adult housefly was sufficiently ground with Physcotron (Nichion Irika Kikai Seisakusho). After that, the ground material was centrifuged under conditions of 10,000 g and 15 minutes. The obtained supernatant was further centrifuged under conditions of 100,000 g and 60 minutes. Thus, precipitates were obtained. The precipitates were dissolved in 1 ml of a potassium phosphate buffer, and this solution was used as a crude enzyme solution. The enzyme extraction operations were all conducted on ice or under a condition of 4° C.
Reagents were mixed with each other at the following ratio in a tube having a capacity of 1.5 mL, and allowed to react with each other at 25° C. for 40 hours. After the reaction, 1 mL of acetone was added to the mixture, followed by stirring. Then, the formed precipitates were removed by centrifugation at 12000 rpm for 5 minutes. […]

[3] = test system: Aphis gossypii; test: Test for control of cotton aphid (leaf disk); type: in vivo; conditions: in Cucumis sativus, foliar, 72 h, read-out: Mortality rate, Aphis gossypii
Procedure: (§2) A leaf disk having a diameter of 2.0 cm was cut out from cucumber (Cucumis sativus L.) grown in a pot. Then, a liquid agent prepared to be 50% acetone-water (to which 0.05% Tween20 was added) and to contain 500 ppm of a compound represented by formula (I) was spread over the leaf disk. After the leaf disk was air dried, first instar larvae were released on the leaf disk. After that, the leaf disk was allowed to stand in a thermostatic chamber at 25° C. (16-hour light period and 8-hour dark period). […] The test was duplicated. Mortality rate (%)=[Number of dead insects/(Number of survived insects+Number of dead insects)]×100

[4] = test system: Nilaparvata lugens; test: Test for control of Nilaparvata lugens, sensitive and resistant strains (rice soil drench); type: in vivo; conditions: three days after release
Procedure: as §1, with “Nilaparvata lugens” for “Laodelphax striatellus”, “that,” for “that”
Note that the pests tested were as follows: Insects bred for generations in a room for a long period (sensitive strain), (I) Insects collected in Kumamoto Prefecture in 2007, and bred for generations in a room (field-collected strain: resistant strain), or (II) Insects collected in Fukuoka Prefecture in 2005, and bred for generations in a room (field-collected strain).

[5] = test system: Haemaphysalis longicornis; test: Effect of controlling Haemaphysalis longicornis on body surface of mouse; type: in vivo; conditions: mouse (ICR, male), 20 μL of 1000-fold diluted drop preparation (48% by weight Compound 1 in ethanol), three days after release
Procedure: Hair on the back of a mouse (ICR, male, 5-weeks old) in a region having a diameter of approximately 2 cm was shaved, and a 15-mL polystyrene conical tube cut to have a height of approximately 1.5 cm was bonded to this region with an instant adhesive.
Then, 20 μL of a 1000-fold diluted liquid of a pest control agent prepared according to the following formulation was added dropwise onto the body surface of the mouse within the bonded tube. After sufficient drying, […] larvae of Haemaphysalis longicornis were released into the tube, and the tube was capped.
Formulation [Drop Preparation]
The components were uniformly mixed with each other, and a drop preparation was obtained. blood-sucking inhibition rate (%)=100−[Number of […]/(Number of survived ticks+Number of dead ticks)]×100

[6] = test system: Plutella xylostella; test: Test for control of diamondback moth (leaf disk); type: in vivo; conditions: in Brassica oleracea, foliar, 72 h, read-out: Mortality rate, Plutella xylostella
Procedure: as §2, with “5.0” for “2.0”, “cabbage” for “cucumber (Cucumis sativus L.)”, “second” for “first”

[7] = test system: Laodelphax striatellus; test: Test for control of Laodelphax striatellus (wheat seedling root treatment); type: in vivo; conditions: 96 h, read-out: Mortality rate, Laodelphax striatellus
Procedure: Roots of wheat seedlings 48 hours after seeding were each treated with 200 μL of a liquid agent prepared to be 10% acetone-water, and to contain 100 ppm of a compound represented by formula (I). The agent was absorbed through the roots for 72 hours, and then 10 second instar larvae of Laodelphax striatellus were released on each wheat seedling. After that, the wheat seedlings were allowed to stand in a thermostatic chamber at 25° C. (16-hour light period and 8-hour dark period). […] The test was duplicated.

[8] = test system: Haemaphysalis longicornis; test: Test for control of Haemaphysalis longicornis (dry film in glass vial); type: in vivo; conditions: 24 h, read-out: Mortality rate
Procedure: Into a glass vial having a capacity of 4 mL, 30 μL of an acetone solution containing 200 ppm or 10 ppm of a compound of the present invention was introduced. The vial was placed on a shaker, and air dried, while being rotated. Thus, a dry film of the compound was formed on the inner wall of the vial. After the vial was dried for 24 hours or longer, 10 larvae of Haemaphysalis longicornis were released in the vial, and then the vial was capped. The vial was allowed to stand in a thermostatic chamber under conditions of 25° C., a humidity of 85%, and total darkness. […] The test was duplicated. Mortality rate (%)=[Number of dead insects/(Number of survived insects+Number of dead insects)]×100

[9] = 0.005 mg/seedling, all the strains
[10] = 0.01 mg/seedling, sensitive strain
[11] = 0.01 mg/seedling, strain (II) (Fukuoka 2005, field-collected)
[12] = 0.01 mg/seedling, field-collected strain (Kumamoto 2006, resistant)

SMILES	mortality at 500 ppm [3]	mortality at 500 ppm [6]	mortality at 100 ppm [7]	further results
O=C(N=c1ccccn1Cc1ccc(Cl)nc1)C(F)(F)F [Compound 1, N-[1-((6-Chloropyridin-3-yl)methyl)pyridin-2(1H)-ylidene]-2,2,2-trifluoroacetamide]	100%	100%	100%	Mortality rate [1, 9]: ≥ 90%; total area percentage of metabolites [2]: 0.08; Mortality rate [4, 9]: ≥ 90%; Mortality rate ([4]; 0.05 mg/seedling, all the strains): 100%; blood-sucking inhibition rate [5]: 91%; mortality at 10 ppm [8]: ≥ 80%; mortality at 200 ppm [8]: ≥ 80%
O=C(N=c1ccccn1Cc1cnc(Cl)c(F)c1)C(F)(F)F [Compound 2, N-[1-((6-Chloro-5-fluoropyridin-3-yl)methyl)pyridin-2(1H)-ylidene]-2,2,2-trifluoroacetamide]	100%	100%	100%	Mortality rate [4, 10]: 72%; Mortality rate [4, 11]: 70%
O=C(N=c1ccccn1Cc1ccc(Br)nc1)C(F)(F)F [Compound 3, N-[1-((6-Bromopyridin-3-yl)methyl)pyridin-2(1H)-ylidene]-2,2,2-trifluoroacetamide]	100%	100%	100%	Mortality rate [1, 12]: 90%; Mortality rate [1, 10]: 100%
O=C(N=c1ccccn1Cc1ccc(Cl)nc1)C(F)(F)Cl [Compound 4, 2-chloro-N-[1-((6-Chloropyridin-3-yl)methyl)pyridin-2(1H)-ylidene]-2,2-difluoroacetamide]	100%	100%	100%	
O=C(N=c1ccccn1Cc1ccc(Cl)nc1)C(Cl)(Cl)Cl [Compound 5, 2,2,2-Trichloro-N-[1-((6-chloropyridin-3-yl)methyl)pyridin-2(1H)-ylidene]acetamide]	95%	100%	75%	
O=C(N=c1ccccn1Cc1cnc(Cl)nc1)C(F)(F)F [Compound 6, N-[1-((2-Chloropyrimidin-5-yl)methyl)pyridin-2(1H)-ylidene]-2,2,2-trifluoroacetamide]	100%	100%	100%	
O=C(N=c1ccccn1Cc1ccc(Cl)nc1)C(F)(F)C(F)(F)F [Compound 7, N-[1-((6-Chloropyridin-3-yl)methyl)pyridin-2(1H)-ylidene]-2,2,3,3,3-pentafluoropropanamide]	100%	100%	100%	
O=C(N=c1ccccn1Cc1ccc(Cl)nc1)C(F)F [Compound 8, N-[1-((6-Chloropyridin-3-yl)methyl)pyridin-2(1H)-ylidene]-2,2-difluoroacetamide]	100%	100%	100%	
O=C(N=c1ccccn1Cc1ccc(F)nc1)C(F)(F)F [Compound 19, N-[1-((6-fluoropyridin-3-yl)methyl)pyridin-2(1H)-ylidene]-2,2,2-trifluoroacetamide]	100%	100%	100%	Mortality rate [4, 10]: 100%; Mortality rate [4, 11]: 93%
N#Cc1nn(-c2c(Cl)cc(C(F)(F)F)cc2Cl)c(N)c1[S+]([O-])C(F)(F)F (stereo not shown) [fipronil]				Mortality rate [1, 12]: 70%; Mortality rate [1, 10]: 100%
O=[N+]([O-])NC1=NCCN1Cc1ccc(Cl)nc1 [imidacloprid, reference compound]				Mortality rate [1, 12]: 50%; Mortality rate [1, 10]: 100%; total area percentage of metabolites [2]: 2.55; Mortality rate ([4]; 0.05 mg/seedling, sensitive strain): 100%; Mortality rate ([4]; 0.05 mg/seedling, strain (I) (Kumamoto 2007, resistant strain)): 40%; Mortality rate ([4]; 0.05 mg/seedling, strain (II) (Fukuoka 2005, field-collected)): 60%; mortality at 10 ppm [8]: 4%
